Values joined by “and” are separate entries in the source; they are usually repeats but may differ in a detail not shown here. Equal values may be shown once. Toxic doses and inconclusive results are not listed.
Tested on: CD2F1 mice, L1210 leukemia ip, survival T/C
Experiment: NCI In Vivo Anticancer Drug Screen. Data for tumor model L1210 Leukemia (intraperitoneal) in CD2F1 (CDF1) mice
Details: higher = longer survival
Outline: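 Tumor-bearing mice (transplanted tumor) were split into treated and vehicle control groups, and the measured endpoint of each treated group was divided by that of its vehicle controls.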

[1] = endpoint: mean survival time, dose: 25.0 mg/kg/injection, schedule: Q01DX009 (ip), vehicle: Klucel (hydroxypropylcellulose) (HPC)
[2] = endpoint: mean survival time, dose: 50.0 mg/kg/injection, schedule: Q01DX009 (ip), vehicle: Klucel (hydroxypropylcellulose) (HPC)
[3] = endpoint: mean survival time, dose: 200.0 mg/kg/injection, schedule: Q01DX009 (ip), vehicle: Klucel (hydroxypropylcellulose) (HPC)
[4] = endpoint: mean survival time, dose: 100.0 mg/kg/injection, schedule: Q01DX009 (ip), vehicle: Klucel (hydroxypropylcellulose) (HPC)

CN1C(=O)CN=C(c2ccccc2)c2cc(Cl)ccc21
T/C (endpoint: mean survival time, dose: 12.5 mg/kg/injection, schedule: Q01DX009 (ip), vehicle: Klucel (hydroxypropylcellulose) (HPC)): 100 % of control | T/C [1]: 104 % of control | T/C [2]: 100 % of control | T/C [3]: 90 % of control

O=c1[nH]c(=O)n(C2OC3COC2C3O)cc1F (centres undefined)
T/C (endpoint: median survival time, dose: 12.5 mg/kg/injection, schedule: Q01DX005 (ip), vehicle: saline with Tween-80): 101 % of control | T/C (endpoint: median survival time, dose: 25.0 mg/kg/injection, schedule: Q01DX005 (ip), vehicle: saline with Tween-80): 106 % of control | T/C (endpoint: median survival time, dose: 50.0 mg/kg/injection, schedule: Q01DX005 (ip), vehicle: saline with Tween-80): 102 % of control | T/C (endpoint: median survival time, dose: 100.0 mg/kg/injection, schedule: Q01DX005 (ip), vehicle: saline with Tween-80): 97 % of control | T/C (endpoint: median survival time, dose: 200.0 mg/kg/injection, schedule: Q01DX005 (ip), vehicle: saline with Tween-80): 96 % of control

CCOC(=O)/C(C)=C/C(O)CO (centres undefined)
T/C (endpoint: mean survival time, dose: 100.0 mg/kg/injection, schedule: Q01DX009 (ip), vehicle: saline sonified): 96 % of control | T/C (endpoint: mean survival time, dose: 100.0 mg/kg/injection, schedule: Q04DX003 (ip), vehicle: saline with Tween-80): 105 % of control | T/C (endpoint: mean survival time, dose: 200.0 mg/kg/injection, schedule: Q01DX009 (ip), vehicle: saline sonified): 95 % of control | T/C (endpoint: mean survival time, dose: 200.0 mg/kg/injection, schedule: Q04DX003 (ip), vehicle: saline with Tween-80): 98 % of control | T/C (endpoint: mean survival time, dose: 400.0 mg/kg/injection, schedule: Q04DX003 (ip), vehicle: saline with Tween-80): 96 % of control

COc1ccc(C(CC(=O)c2ccccc2)[Se]c2ccccc2)cc1 (centres undefined)
T/C (endpoint: median survival time, dose: 25.0 mg/kg/injection, schedule: Q01DX009 (ip), vehicle: Klucel (hydroxypropylcellulose) (HPC)): 101 % of control | T/C (endpoint: median survival time, dose: 50.0 mg/kg/injection, schedule: Q01DX009 (ip), vehicle: Klucel (hydroxypropylcellulose) (HPC)): 100 % of control | T/C (endpoint: median survival time, dose: 100.0 mg/kg/injection, schedule: Q01DX009 (ip), vehicle: Klucel (hydroxypropylcellulose) (HPC)): 101 % of control | T/C (endpoint: median survival time, dose: 200.0 mg/kg/injection, schedule: Q01DX009 (ip), vehicle: Klucel (hydroxypropylcellulose) (HPC)): 94 % of control

COc1cc(-c2[o+]c3cc(O)cc(O)c3cc2OC2OC(CO)C(O)C(O)C2O)cc(OC)c1O (centres undefined)
T/C (endpoint: mean survival time, dose: 25.0 mg/kg/injection, schedule: Q01DX009 (ip), vehicle: saline with Tween-80): 94 % of control | T/C (endpoint: mean survival time, dose: 50.0 mg/kg/injection, schedule: Q01DX009 (ip), vehicle: saline with Tween-80): 96 % of control | T/C (endpoint: mean survival time, dose: 100.0 mg/kg/injection, schedule: Q01DX009 (ip), vehicle: saline with Tween-80): 96 % of control

CCCCCCCCCCCCCCCCCC(=O)Nc1ccn(C2OC(CO)C(O)C2O)c(=O)n1 (centres undefined)
T/C (endpoint: mean survival time, dose: 25.0 mg/kg/injection, schedule: Q04DX002 (ip), vehicle: saline with Tween-80): 229 % of control and 252 % of control | T/C (endpoint: mean survival time, dose: 50.0 mg/kg/injection, schedule: Q04DX002 (ip), vehicle: saline with Tween-80): 271 % of control and 325 % of control | T/C (endpoint: mean survival time, dose: 75.0 mg/kg/injection, schedule: Q04DX002 (ip), vehicle: saline with Tween-80): 365 % of control | T/C (endpoint: mean survival time, dose: 100.0 mg/kg/injection, schedule: Q04DX002 (ip), vehicle: saline with Tween-80): 273 % of control and 313 % of control | T/C (endpoint: mean survival time, dose: 200.0 mg/kg/injection, schedule: Q04DX002 (ip), vehicle: saline with Tween-80): 122 % of control | T/C (endpoint: mean survival time, dose: 400.0 mg/kg/injection, schedule: Q04DX002 (ip), vehicle: saline with Tween-80): 110 % of control

CC(C)=NNS(=O)(=O)c1ccc(C)cc1
T/C [1]: 102 % of control | T/C [2]: 96 % of control | T/C [4]: 93 % of control | T/C [3]: 86 % of control | T/C (endpoint: mean survival time, dose: 400.0 mg/kg/injection, schedule: Q01DX009 (ip), vehicle: Klucel (hydroxypropylcellulose) (HPC)): 91 % of control

COc1ccc2oc3c(ccc[n+]3C)c(=O)c2c1
T/C (endpoint: median survival time, dose: 60.0 mg/kg/injection, schedule: Q01DX005 (ip), vehicle: saline with Tween-80): 104 % of control | T/C (endpoint: median survival time, dose: 120.0 mg/kg/injection, schedule: Q01DX005 (ip), vehicle: saline with Tween-80): 108 % of control | T/C (endpoint: median survival time, dose: 240.0 mg/kg/injection, schedule: Q01DX005 (ip), vehicle: saline with Tween-80): 122 % of control

COC1C(N)C(OC2C(Oc3cccc4c(O)c5c(=O)oc6ccc(C)c7c(=O)oc(c34)c5c67)OC(C)C(O)C2(C)O)OC(C)C1O (centres undefined)
T/C (endpoint: median survival time, dose: 1.25 mg/kg/injection, schedule: Q01DX005 (ip), vehicle: other): 151 % of control | T/C (endpoint: median survival time, dose: 3.0 mg/kg/injection, schedule: Q01DX005 (ip), vehicle: other): 177 % of control | T/C (endpoint: median survival time, dose: 5.0 mg/kg/injection, schedule: Q01DX005 (ip), vehicle: other): 164 % of control and 177 % of control

Cc1ccc(S(=O)(=O)N2C(=O)OC3(CCCCC3)C2C)cc1 (centres undefined)
T/C (endpoint: mean survival time, dose: 100.0 mg/kg/injection, schedule: Q01DX001 (ip), vehicle: saline with Tween-80): 100 % of control | T/C (endpoint: mean survival time, dose: 200.0 mg/kg/injection, schedule: Q01DX001 (ip), vehicle: saline with Tween-80): 95 % of control | T/C (endpoint: mean survival time, dose: 400.0 mg/kg/injection, schedule: Q01DX001 (ip), vehicle: saline with Tween-80): 92 % of control

O=[N+]([O-])c1ccc(/C=N\N=C\c2ccc([N+](=O)[O-])cc2)cc1
T/C [2]: 106 % of control | T/C [4]: 106 % of control | T/C [3]: 109 % of control
